Measured values as given in patent US20190203240A1, “METHODS FOR THE PRODUCTION OF RHAMNOSYLATED FLAVONOIDS” (Universitaet Hamburg, priority 2016, published 2019).

Legend:
Format in all cases: cell-based
STAT3 = STAT3 activity in HeLa-STAT3-luc cells stimulated with IFN-γ (luciferase); conditions: +IFNγ 25 U/ml
Experimental: HeLa-STAT3-luc cells were stably transfected with the plasmid 4×M67 pTATA TK-Luc. Cells (20×10^3 cells/ml) were seeded 96-well plate the day before the assay. Then the cells were treated with the test substances for […] and then stimulated with IFN-γ 25 IU/ml. After 6 h, the cells were washed twice with PBS and lysed in […] lysis buffer containing 25 mM Tris-phosphate (pH 7.8), 8 mM MgCl2, 1 mM DTT, 1% Triton X-100, and 7% glycerol during […] at RT in a horizontal shaker. Luciferase activity was measured using GloMax 96 microplate luminometer (Promega) following the instructions of the luciferase assay kit (Promega, Madison, Wis., USA). […] The experiments for each concentration of the test items were done in triplicate wells.

HaCaT cells = assay: Glucose uptake (2-NBDG) in HaCaT keratinocytes; conditions: +2NBDG 50 μM, 24 h
Experimental: HaCaT cells (5×10^4) were seeded in 96-well black plates and incubated for 24 h. Then, medium was removed and the cells cultivated in OptiMEM, labeled with 50 μM 2-NBDG (2-[N-(7-nitrobenz-2-oxa-1,3-diazol-4-yl) amino]-2-deoxy-D-glucose and treated with the test substances or the positive control, Rosiglitazone, for 24 h. Medium was removed and the wells were carefully washed with PBS and incubated in PBS (100 μl/well). Finally the fluorescence was measured using the Incucyte FLR software, the data were analyzed by the total green object integrated intensity (GCU×μm2×Well) of the imaging system IncuCyte HD (Essen BioScience). The fluorescence of Rosiglitazone is taken as 100% of glucose uptake, and the glucose uptake was calculated as (% Glucose uptake)=100(T−B)/(R−B), where T (treated) is the fluorescence of test substance-treated cells, B (Basal) is the fluorescence of 2-NBDG cells and […] is the fluorescence of cells treated with Rosiglitazone.

NF-κB = NF-κB activity in NIH3T3-KBF-Luc cells stimulated with TNFα (luciferase); conditions: +30 ng/ml TNFα
Experimental: NIH3T3-KBF-Luc cells were stably transfected with the KBF-Luc plasmid (Sancho (2003) Mol Pharmacol 63:429-438), which contains three copies of NF-κB binding site (from major histocompatibility complex promoter), fused to a minimal simian virus 40 promoter driving the luciferase gene. Cells (1×10^4 for NIH3T3-KBF-Luc) were seeded the day before the assay on 96-well plate. Then the cells were treated with the test substances for 15 min and then stimulated with 30 ng/ml of TNFα. After 6 h, the cells were washed twice with PBS and lysed in 50 μl lysis buffer containing 25 mM Tris-phosphate (pH 7.8), 8 mM MgCl2, 1 mM DTT, 1% Triton X-100, and 7% glycerol during 15 min at RT in a horizontal shaker. Luciferase activity was measured using a GloMax 96 microplate luminometer (Promega) following the instructions of the luciferase assay kit (Promega, Madison, Wis., USA). […] The experiments for each concentration of the test items were done in triplicate wells.

Structure (SMILES)	% Activation (STAT3; IFNγ = 100%) (STAT3; 25 μM) [%]	RLU 1 (STAT3; 25 μM) [RLU]	RLU 2 (STAT3; 25 μM) [RLU]	RLU 3 (STAT3; 25 μM) [RLU]	RLU MEAN (STAT3; 25 μM) [RLU]	RLU specific (STAT3; 25 μM) [RLU]	RLU 1 (STAT3; 50 μM) [RLU]	RLU 2 (STAT3; 50 μM) [RLU]	RLU 3 (STAT3; 50 μM) [RLU]	% Activation (NF-κB; TNFα = 100%) (NF-κB; 10 μM) [%]	RLU 1 (NF-κB; 10 μM) [RLU]	RLU 2 (NF-κB; 10 μM) [RLU]	RLU 3 (NF-κB; 10 μM) [RLU]	RLU MEAN (NF-κB; 10 μM) [RLU]	RLU specific (NF-κB; 10 μM) [RLU]	RLU 1 (NF-κB; 25 μM) [RLU]	RLU 2 (NF-κB; 25 μM) [RLU]	RLU 3 (NF-κB; 25 μM) [RLU]	RLU MEAN (NF-κB; 25 μM) [RLU]	RLU specific (NF-κB; 25 μM) [RLU]	also measured
COc1cc(C2Oc3cc([C@H]4Oc5cc(O)cc(O)c5C(=O)[C@@H]4O)ccc3OC2CO)ccc1O (stereo partly drawn) [Silibinin]	121.32	12389	11170	11210	11590	9755	12157	11885	10540	–	–	–	–	–	–	–	–	–	–	–	% Activation (STAT3; IFNγ = 100%) (STAT3; 50 μM): 120.55%; RLU MEAN (STAT3; 50 μM): 11527 RLU; RLU specific (STAT3; 50 μM): 9692 RLU
COc1ccc(-c2coc3cc(O[C@@H]4O[C@@H](C)[C@H](O)[C@@H](O)[C@H]4O)cc(O[C@@H]4O[C@@H](C)[C@H](O)[C@@H](O)[C@H]4O)c3c2=O)cc1 [BR1, Biochanin A-5,7-di-O-α-L-rhamnoside]	110.41	8162	12819	11157	10713	8878	12336	11620	12104	170.3	259120	247590	229500	245403	222040	211660	208010	203720	207797	184433	% Activation (STAT3; IFNγ = 100%) (STAT3; 50 μM): 126.67%; RLU MEAN (STAT3; 50 μM): 12020 RLU; RLU specific (STAT3; 50 μM): 10185 RLU; % Glucose uptake (Rosiglitazone = 100%) (HaCaT cells; 25 μM): 44.0%; Mean (fluorescence) (HaCaT cells; 25 μM): 597246; Measure 1 (fluorescence) (HaCaT cells; 25 μM): 730362; Measure 2 (fluorescence) (HaCaT cells; 25 μM): 661244; Measure 3 (fluorescence) (HaCaT cells; 25 μM): 400131; RFU specific (HaCaT cells; 25 μM): 564160 RFU; % Glucose uptake (Rosiglitazone = 100%) (HaCaT cells; 50 μM): 56.4%; Mean (fluorescence) (HaCaT cells; 50 μM): 756509; Measure 1 (fluorescence) (HaCaT cells; 50 μM): 899548; Measure 2 (fluorescence) (HaCaT cells; 50 μM): 626443; Measure 3 (fluorescence) (HaCaT cells; 50 μM): 743535; RFU specific (HaCaT cells; 50 μM): 723423 RFU; % Activation (NF-κB; TNFα = 100%) (NF-κB; 25 μM): 141.4%
CC1O[C@@H](Oc2cc(O)cc3oc(-c4ccccc4)cc(=O)c23)C(O)C(O)[C@H]1O (stereo partly drawn) [CR2, Chrysin-5-O-α-L-rhamnoside]	–	–	–	–	–	–	–	–	–	101.7	156600	160140	151070	155937	132573	170390	179220	163490	171033	147670	% Glucose uptake (Rosiglitazone = 100%) (HaCaT cells; 25 μM): 47.2%; Mean (fluorescence) (HaCaT cells; 25 μM): 416681; Measure 1 (fluorescence) (HaCaT cells; 25 μM): 427937; Measure 2 (fluorescence) (HaCaT cells; 25 μM): 431593; Measure 3 (fluorescence) (HaCaT cells; 25 μM): 390512; RFU specific (HaCaT cells; 25 μM): 410367 RFU; % Glucose uptake (Rosiglitazone = 100%) (HaCaT cells; 50 μM): 106.5%; Mean (fluorescence) (HaCaT cells; 50 μM): 931673; Measure 1 (fluorescence) (HaCaT cells; 50 μM): 771478; Measure 2 (fluorescence) (HaCaT cells; 50 μM): 1100390; Measure 3 (fluorescence) (HaCaT cells; 50 μM): 923151; RFU specific (HaCaT cells; 50 μM): 925359 RFU; activity at 25 µM (NF-κB; 6 h, 25 μM, read-out: % Activation (NF-κB; TNFα = 100%)): 113%
COc1ccc(-c2cc(=O)c3c(O)cc(O)cc3o2)cc1O [Diosmetin]	111.00	16337	14303	17066	15902	13895	9189	7751	7857	294.7	398660	411390	412940	407663	384300	448530	452660	451610	450933	427570	RLU MEAN (STAT3; 50 μM): 8266 RLU; RLU specific (STAT3; 50 μM): 6258 RLU; activity at 50 µM (STAT3; 6 h, 50 μM, read-out: % Activation (STAT3; IFNγ = 100%)): 50%; % Activation (NF-κB; TNFα = 100%) (NF-κB; 25 μM): 327.9%
CC1O[C@@H](Oc2cc(O[C@@H]3OC(C)[C@H](O)C(O)C3O)c3c(=O)cc(-c4ccccc4)oc3c2)C(O)C(O)[C@H]1O (stereo partly drawn) [CR1, Chrysin-di-5,7-O-α-L-rhamnoside]	–	–	–	–	–	–	–	–	–	109.9	157870	169000	173010	166627	143263	175140	183630	183960	180910	157547	% Glucose uptake (Rosiglitazone = 100%) (HaCaT cells; 25 μM): 48.3%; Mean (fluorescence) (HaCaT cells; 25 μM): 426161; Measure 1 (fluorescence) (HaCaT cells; 25 μM): 291406; Measure 2 (fluorescence) (HaCaT cells; 25 μM): 358114; Measure 3 (fluorescence) (HaCaT cells; 25 μM): 628963; RFU specific (HaCaT cells; 25 μM): 419847 RFU; % Glucose uptake (Rosiglitazone = 100%) (HaCaT cells; 50 μM): 52.6%; Mean (fluorescence) (HaCaT cells; 50 μM): 463245; Measure 1 (fluorescence) (HaCaT cells; 50 μM): 619992; Measure 2 (fluorescence) (HaCaT cells; 50 μM): 595330; Measure 3 (fluorescence) (HaCaT cells; 50 μM): 174412; RFU specific (HaCaT cells; 50 μM): 456931 RFU; % Activation (NF-κB; TNFα = 100%) (NF-κB; 25 μM): 120.8%
O=c1cc(-c2ccccc2)oc2cc(O)cc(O)c12 [Chrysin]	164.78	28031	22367	17504	22634	20627	27912	3531	16304	313.0	301630	274240	303950	293273	256010	273410	272580	285980	277323	240060	% Activation (STAT3; IFNγ = 100%) (STAT3; 50 μM): 111.11%; RLU MEAN (STAT3; 50 μM): 15916 RLU; RLU specific (STAT3; 50 μM): 13908 RLU; % Activation (NF-κB; TNFα = 100%) (NF-κB; 25 μM): 293.5%
